In patent publication US8298781B2, “Compositions and methods for characterizing and regulating olfactory sensation” (Duke University, priority 2007, dated 2012):

System: human subjects
Test: Human olfactory psychophysics: intensity rating by OR7D4 genotype
Assay type: in vivo
Conditions: for intensity rating, OR7D4 RT/WM vs RT/RT subjects: 7-point scale, two concentrations pooled, N=100 RT/WM, N=255 RT/RT; for intensity rating, RT/S84N subjects vs RT/RT controls: N=7 RT/S84N; for reduction in odor intensity, OR7D4 WM/WM subjects: N=10 WM/WM, compared with RT/WM; for intensity rating, RT/P79L subjects vs RT/RT controls: N=30 RT/P79L
Description: Human olfactory psychophysics. All human subjects gave informed consent to participate in this study and were tested in a well-ventilated room. Normal human subjects (n=412; 218 female, 194 male; median age 34, age range 19-75) were pre-screened to exclude pregnant women and those with medical conditions causing general impairment of the sense of smell. All subjects completed two replicates of the test separated by at least 4 days. Odors were presented in amber vials as previously described (see, e.g., Keller, A., et al., Nat Neurosci 7, 337-338 (2004); herein incorporated by reference in its entirety) using bar-coded symbols to ensure that subjects were blind to the identity of all odors. The intensity and valence of 66 odors at two concentrations (“high” and “low”) and two solvents was rated using a 7-point scale. Thresholds were calculated using the single staircase method with seven reversals (see, e.g., Doty, R. L., et al., Chem Senses 20, 645-656 (1995); Doty, R. L. & Laing, D. G. in Handbook of Olfaction and Gustation (ed. Doty, R. L.) pp. 203-228 (Marcel Dekker, Inc., New York, 2003); each of which are herein incorporated by reference in their entireties). Threshold tests included both steroids as binary dilutions from […] (binary dilution 6) to 1: 134,217,728 (binary dilution 27). Subjects who could not reliably distinguish a 1:64 dilution of androstenone and androstadienone from solvent were operationally defined as anosmic to these odorous steroids, although it could not be excluded that these subjects could detect higher concentrations of these steroids (see, e.g., Bremner, E. A., et al., Chem Senses 28, 423-432 (2003); herein incorporated by reference in its entirety). Odor profiling used the method established by Dravnieks, et al. (see, e.g., Dravnieks, A., et al., Science 218, 799-801 (1982); herein incorporated by reference in its entirety).
Stimuli for olfactory psychophysics. All odors were presented as one ml of an odor dilution in either propylene glycol or paraffin oil in 20 ml amber glass vials. All of these compounds were used in the intensity and valence rating portion of the smell test.
Olfactory ratings. The intensity and valence of 66 odors were rated at two different concentrations (high and low) and the intensity and valence of the two solvents (paraffin oil and propylene glycol) was rated three times. Prior to these ratings, six stimuli that represented the spectrum of intensity and valence of the stimuli used in the study were presented to allow the subjects to calibrate the usage of the scale. The subjects were unaware that the six first stimuli served that purpose. After the rating of the 66 odors at two concentrations and the rating of the solvents, 15 stimuli that were presented earlier in the experiment were repeated to test for the effect of adaptation and olfactory fatigue on the ratings. The subjects were not aware that the last 15 stimuli served this purpose. These 15 stimuli and the six first stimuli were not included in the analysis presented here. […] The 15 control stimuli and their concentrations were as follows:
In addition there was a button on the screen labeled “I can't smell anything” and a button labeled “Don't Know”. If the “Don't Know” button was pressed, no rating was recorded. If the “I can't smell anything” button was pressed, a 0 was recorded for the intensity rating and no rating was recorded for the valence rating. The other ratings were transformed according to the following scheme:
• Extremely Weak=1 • Very Weak=2 • Slightly Weak=3 • Neither Weak nor Strong=4 • Slightly Strong=5 • Very Strong=6 • Extremely Strong=7 Valence Rating • Extremely Unpleasant=1 • Very Unpleasant=2 • Slightly Unpleasant=3 • Neither Unpleasant nor Pleasant=4 • Slightly Pleasant=5 • Very Pleasant=6 • Extremely Pleasant=7
Averages for the ratings of the different genotypes were calculated. […]

SMILES	intensity rating, OR7D4 RT/WM vs RT/RT subjects	intensity rating, RT/S84N subjects vs RT/RT controls	reduction in odor intensity, OR7D4 WM/WM subjects	intensity rating, RT/P79L subjects vs RT/RT controls
C[C@@]12C=CC[C@H]1[C@@H]1CCC3=CC(=O)CC[C@]3(C)[C@H]1CC2 [androstadienone, androsta-4,16-dien-3-one]	less intense	more intense	more marked	less intense
C[C@]12CCC(=O)C[C@@H]1CC[C@@H]1[C@@H]2CC[C@]2(C)C=CC[C@@H]12 [androstenone, 5α-androst-16-en-3-one]	less intense	more intense	more marked	less intense
